# “Also recorded” adds a separate entry of the source. Like-named read-outs stand apart in the source and are kept apart here.
# Key:
# human fibroblast cells [1] = test: Collagen production by fibroblast cells; format: cell-based; conditions: treated vs control cells
# Text: (§1) Experiments generally following the methodology of Boote et al., Biochimica et Biophysica Acta, Volume 607, pages 145-160 (1980), have shown that while control human fibroblast cells have copious collagen production, treatment with the compounds of the invention provides human fibroblast cells with suppressed collagen production and with an about 30% increase in elastin production over control cells.
# (§2) Wrinkling of the skin involves the decreased formation of elastin and the increased formation of collagen by supporting cells, predominantly the fibroblasts.
# androgen receptor site = molecular target: T1, androgen receptor site (Homo sapiens, UniProt P10275); test: % inhibition of labelled androgen (3H DHT) binding to caesarean section skin from hirsute patients
# T1 construct: the test utilizing caesarean section skin from hirsute patients; from tissue; host or cells: caesarean section skin from hirsute patients
# T1 sequence (P10275 1-920): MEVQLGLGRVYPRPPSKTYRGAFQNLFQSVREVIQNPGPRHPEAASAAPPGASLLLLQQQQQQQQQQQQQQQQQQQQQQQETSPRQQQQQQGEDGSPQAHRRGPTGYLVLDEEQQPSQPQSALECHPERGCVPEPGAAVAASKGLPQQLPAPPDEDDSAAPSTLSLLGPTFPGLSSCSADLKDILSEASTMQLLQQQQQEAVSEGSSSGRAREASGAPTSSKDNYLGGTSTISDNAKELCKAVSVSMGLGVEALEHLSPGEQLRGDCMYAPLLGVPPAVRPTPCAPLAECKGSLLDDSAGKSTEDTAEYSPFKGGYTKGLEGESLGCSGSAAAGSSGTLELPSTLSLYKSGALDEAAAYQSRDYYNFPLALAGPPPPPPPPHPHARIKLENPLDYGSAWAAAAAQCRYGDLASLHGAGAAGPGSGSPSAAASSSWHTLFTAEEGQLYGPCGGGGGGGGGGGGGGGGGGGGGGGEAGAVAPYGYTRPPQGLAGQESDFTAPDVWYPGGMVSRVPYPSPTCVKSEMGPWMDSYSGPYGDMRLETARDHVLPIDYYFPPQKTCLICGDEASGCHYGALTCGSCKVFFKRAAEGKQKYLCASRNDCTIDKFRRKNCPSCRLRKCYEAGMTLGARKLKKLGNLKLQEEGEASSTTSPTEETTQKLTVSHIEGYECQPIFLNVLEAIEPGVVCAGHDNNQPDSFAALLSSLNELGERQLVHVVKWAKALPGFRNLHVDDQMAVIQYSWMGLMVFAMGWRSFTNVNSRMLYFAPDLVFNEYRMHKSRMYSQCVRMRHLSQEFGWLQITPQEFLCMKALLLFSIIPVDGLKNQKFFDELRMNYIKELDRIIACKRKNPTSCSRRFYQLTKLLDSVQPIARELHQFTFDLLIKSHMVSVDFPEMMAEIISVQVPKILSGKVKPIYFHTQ
# androgen receptor sites = molecular target: T2, androgen receptor sites (Homo sapiens, UniProt P10275); test: Anti-androgenic action in similar tests
# T2 construct: other tests of the document use human skin, keloid and fibroblasts with 3H-DHT
# Text: The test procedures set forth in Examples 54-58 may be repeated with the compound 2-(5-methoxyhept-1-yl)bicyclo[3.3.0]octan-7-one {hexahydro-4-(5-methoxyheptyl)-2(1H)-pentalenone}.
# keloid = test: Suppression of keloid formation; parameters: species or system human
# Fusarium = test: Effects on Fusarium growth and fungal hormone production; format: cell-based
# Text: It is also known that these fungi elaborate zearalenone and zearalanol which are toxic substances to livestock ingesting the grain rotted by them. Ingestion of these toxic substances is known to influence the prepubertal development of pigs (Berger et al., Journal of Animal Science, Vol. 53, pages 1559-1564 (1981). Zearalenone and zearalanol also affect milk production, breeding and pregnancy in such large livestock animals as pigs, cows and horses (Young et al., Journal of Animal Science, Vol. 54, pages 976-982). The Fusarium family of fungi also adversely affect chicken, turkey and other poultry animal populations (Allen et al., Poultry Science, Vol. 60, pages 124-131 (1981); Mirocha et al., Poultry Science, Vol. 60, pages 19-25 (1981)). Because of the importance of livestock production, the effect of the anti-androgens of this invention on these fungi was extensively studied. There is no currently available satisfactory treatment for the fungi nor the fungal hormones they elaborate (i.e., zearalenone and zearalanol).
# [2] = molecular target: T3, progesterone receptor (keloid cytosol) (Homo sapiens, UniProt P06401); test: Keloid cytosol steroid binding assay, progesterone
# T3 construct: [3H]promegestone (R5020) tracer
# human fibroblast cells [3] = test: Elastin production by fibroblast cells; format: cell-based; conditions: for formation of elastin: Example 45; for increase in elastin production over control cells: treated vs control (non-treated) fibroblast cells
# Text: as §1, §2
# androgen receptor [4] = molecular target: T4, androgen receptor (Homo sapiens, UniProt P10275); test: In vitro inhibition of the androgen receptor-DHT interaction; format: binding; parameters: from tissue; conditions: for % of Androgen Receptor Inhibition: DHT; for Femtamoles of DHT Bound/mg Protein: corrected for nonspecific binding, 0:1 = 78
# T4 sequence (P10275 1-920): T1 sequence (P10275 1-920)
# androgen receptor [5] = molecular target: T4, androgen receptor; test: In vitro inhibition of the androgen receptor-testosterone interaction; format: binding; parameters: from tissue; conditions: for inhibition of the androgen receptor site: 10 molecules of compound for one molecule of testosterone; for Femtamoles of Testosterone Bound/mg Protein / % of Androgen Receptor Inhibition: ratio of compound to androgen 20:1; for Femtamoles of Testosterone Bound/mg Protein: corrected for nonspecific binding, 0:1 = 3.6; for % of Androgen Receptor Inhibition: testosterone
# Protocol: Competitive inhibition experiments were performed using compound IV in the second technique described above.
# progesterone receptor [6] = test: Progesterone receptor inhibition, Saccharomyces cerevisiae strains; conditions: DHT:anti-androgen 1:1,000
# fungal infections = test: Efficacy studies and toxicity studies
# Text: At the present time, therapies for fungal infections are not satisfactory and are frequently dangerous.
# progesterone receptor [7] = format: binding; conditions: Histoplasma
# androgen receptor [8] = test: Androgen receptor inhibition, Blastomyces; format: binding
# estrogen receptor [9] = test: Estrogen receptor inhibition, Cryptococci; format: binding
# estrogen receptor [10] = test: Estrogen receptor inhibition, Torulopsis; format: binding
# progesterone receptor [11] = test: Progesterone receptor inhibition, Torulopsis; format: binding
# estrogen receptor [12] = test: Estrogen receptor inhibition, Coccodia; format: binding
# estrogen receptor [13] = test: Estrogen receptor inhibition, Norcardia; format: binding
# [14] = ratio of compound to androgen 10:1
# [15] = ratio of compound to androgen 100:1
# [16] = ratio of compound to androgen 1000:1
# [17] = ratio of compound to androgen 10000:1
# T3 sequence (P06401 whole entry): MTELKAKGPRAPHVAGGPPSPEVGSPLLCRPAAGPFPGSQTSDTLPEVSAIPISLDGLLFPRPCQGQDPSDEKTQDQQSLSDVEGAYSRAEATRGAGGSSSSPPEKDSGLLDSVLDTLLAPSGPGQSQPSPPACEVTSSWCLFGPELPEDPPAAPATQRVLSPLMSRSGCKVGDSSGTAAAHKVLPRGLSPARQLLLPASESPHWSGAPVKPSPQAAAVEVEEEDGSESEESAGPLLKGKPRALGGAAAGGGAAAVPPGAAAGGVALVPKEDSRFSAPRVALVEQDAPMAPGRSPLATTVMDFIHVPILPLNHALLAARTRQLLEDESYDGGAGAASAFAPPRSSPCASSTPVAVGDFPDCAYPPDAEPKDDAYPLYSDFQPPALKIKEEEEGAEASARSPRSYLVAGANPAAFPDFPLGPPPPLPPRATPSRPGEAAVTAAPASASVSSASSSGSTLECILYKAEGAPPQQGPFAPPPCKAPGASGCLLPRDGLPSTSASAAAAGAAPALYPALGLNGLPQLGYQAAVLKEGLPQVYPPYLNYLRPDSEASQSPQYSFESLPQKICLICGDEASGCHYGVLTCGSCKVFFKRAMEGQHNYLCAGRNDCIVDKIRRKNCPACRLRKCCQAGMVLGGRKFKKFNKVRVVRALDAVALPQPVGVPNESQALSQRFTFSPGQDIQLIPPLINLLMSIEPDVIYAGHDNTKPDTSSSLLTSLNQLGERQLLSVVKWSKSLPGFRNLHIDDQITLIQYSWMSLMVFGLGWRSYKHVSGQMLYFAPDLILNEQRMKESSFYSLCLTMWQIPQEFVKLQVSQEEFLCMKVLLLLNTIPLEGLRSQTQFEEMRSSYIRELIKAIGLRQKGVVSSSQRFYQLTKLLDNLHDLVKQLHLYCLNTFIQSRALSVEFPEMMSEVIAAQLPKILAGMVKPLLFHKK
smiles,measurement,setting,value
"CCC(CCCCC1CCC2CC(=O)CC12)OC (stereo not shown) [Compound V, 2-(5-Methoxyhept-1-yl)bicyclo[3.3.0]octan-7-one]",collagen production/formation,human fibroblast cells [1],decrease in collagen production; also recorded: decreased
same,% Inhibition of 3H Androgen Binding to Skin,androgen receptor site; [14],32%
same,% Inhibition of 3H Androgen Binding to Skin,androgen receptor site; [15],55%
same,% Inhibition of 3H Androgen Binding to Skin,androgen receptor site; [16],80%
same,% Inhibition of 3H Androgen Binding to Skin,androgen receptor site; [17],86%
same,anti-androgenic action,androgen receptor sites,anti-androgenic compound operating in the same manner
same,keloid formation,keloid,suppression of keloid formation
same,inhibitory effects on species of Fusarium,Fusarium,valuable inhibitory effects
same,effect on binding of progesterone,[2],no effect
same,formation of elastin,human fibroblast cells [3],massive observable increase in the formation of elastin
same,increase in elastin production over control cells,human fibroblast cells [3],~30%
same,% of Androgen Receptor Inhibition,androgen receptor [4]; [14],43.6%
same,% of Androgen Receptor Inhibition,androgen receptor [4]; [15],51.3%
same,Femtamoles of DHT Bound/mg Protein,androgen receptor [4]; [14],44 Femtamoles/mg Protein
same,Femtamoles of DHT Bound/mg Protein,androgen receptor [4]; [15],38 Femtamoles/mg Protein
same,inhibition of the androgen receptor site,androgen receptor [5],inhibited the androgen receptor site
same,Femtamoles of Testosterone Bound/mg Protein,androgen receptor [5],1.9 Femtamoles/mg Protein
same,% of Androgen Receptor Inhibition,androgen receptor [5],47.0%
CCC(O)CCCCC1CCC2CC(=O)CC12 (stereo not shown) [Compound IV],collagen production/formation,human fibroblast cells [1],decreased
same,collagen production/formation,human fibroblast cells [1]; listed as compound IV,decrease in collagen production
same,% Progesterone Receptor Inhibition,progesterone receptor [6]; strain 1,2%
same,% Progesterone Receptor Inhibition,progesterone receptor [6]; strain 2,1%
same,% Progesterone Receptor Inhibition,progesterone receptor [6]; strain 3,0%
same,% Progesterone Receptor Inhibition,progesterone receptor [6]; strain 4,0%
same,% Progesterone Receptor Inhibition,progesterone receptor [6]; strain 5,3%
same,% Progesterone Receptor Inhibition,progesterone receptor [6]; strain 6,8%
same,% Progesterone Receptor Inhibition,progesterone receptor [6]; strain 7,4%
same,efficacy studies,fungal infections,efficacious
same,toxicity studies,fungal infections,safe
same,% Inhibition of 3H Androgen Binding to Skin,androgen receptor site; [14],25%
same,% Inhibition of 3H Androgen Binding to Skin,androgen receptor site; [15],51%
same,% Inhibition of 3H Androgen Binding to Skin,androgen receptor site; [16],75%
same,% Inhibition of 3H Androgen Binding to Skin,androgen receptor site; [17],83%
same,anti-androgenic action,androgen receptor sites,anti-androgenic compound operating in the same manner
same,inhibitory effects on species of Fusarium,Fusarium,valuable inhibitory effects
same,colony counts,Fusarium; Fusarium,markedly decreased
same,growth rate,Fusarium; Fusarium,markedly decreased
same,production of zearalanol,Fusarium; Fusarium,markedly decreased
same,production of zearalenone,Fusarium; Fusarium,markedly decreased
same,% Progesterone Receptor Inhibition,progesterone receptor [7],0%
same,% Androgen Receptor Inhibition,androgen receptor [8],49%
same,% Estrogen Receptor Inhibition,estrogen receptor [9],0%
same,% Estrogen Receptor Inhibition,estrogen receptor [10],0%
same,% Progesterone Receptor Inhibition,progesterone receptor [11],6%
same,formation of elastin,human fibroblast cells [3],massive observable increase in the formation of elastin
same,increase in elastin production over control cells,human fibroblast cells [3],~30%
same,% Estrogen Receptor Inhibition,estrogen receptor [12],0%
same,% Estrogen Receptor Inhibition,estrogen receptor [13],0%
same,% of Androgen Receptor Inhibition,androgen receptor [4]; [14],25.6%
same,% of Androgen Receptor Inhibition,androgen receptor [4]; [15],41.0%
same,Femtamoles of DHT Bound/mg Protein,androgen receptor [4]; [14],58 Femtamoles/mg Protein
same,Femtamoles of DHT Bound/mg Protein,androgen receptor [4]; [15],46 Femtamoles/mg Protein
same,inhibition of the androgen receptor site,androgen receptor [5],inhibited the androgen receptor site
same,Femtamoles of Testosterone Bound/mg Protein,androgen receptor [5],2.0 Femtamoles/mg Protein
same,% of Androgen Receptor Inhibition,androgen receptor [5],43.7%

# — patent US4689345A, “Oxygenated alkyl substituted bicyclo alkanes” (CBD Corporation, priority 1986, dated 1987)
